Assay results: BigSolDB 2.1

CCS(=O)(=O)CCn1c([N+](=O)[O-])cnc1C
solubility (mole fraction)
Conditions | 278.15 K | 283.15 K | 288.15 K | 293.15 K | 298.15 K | 303.15 K | 308.15 K | 313.15 K | 318.15 K | 323.15 K
in 2-butoxyethanol | 0.00191 | 0.00214 | 0.00276 | 0.00372 | 0.00446 | 0.0054 | 0.00687 | 0.00826 | 0.0106 | 0.0133
in 2-ethoxyethanol | 0.00356 | 0.00437 | 0.00526 | 0.00647 | 0.00792 | 0.00957 | 0.012 | 0.0147 | 0.0181 | 0.0222
in 2-methoxyethanol | 0.00839 | 0.0102 | 0.0118 | 0.0145 | 0.0175 | 0.0209 | 0.0257 | 0.0314 | 0.0377 | 0.0462
in 2-propoxyethanol | 0.0022 | 0.00261 | 0.00329 | 0.00429 | 0.00513 | 0.00622 | 0.00778 | 0.00967 | 0.0123 | 0.0154
in DMAc | 0.0509 | 0.0571 | 0.0655 | 0.0745 | 0.083 | 0.0944 | 0.107 | 0.121 | 0.136 | 0.154
in DMF | 0.0454 | 0.0521 | 0.06 | 0.0691 | 0.0787 | 0.0905 | 0.104 | 0.119 | 0.134 | 0.152
in NMP | 0.0704 | 0.0804 | 0.089 | 0.0987 | 0.109 | 0.122 | 0.137 | 0.15 | 0.167 | 0.183
in acetone | 0.00866 | 0.011 | 0.0133 | 0.0161 | 0.0195 | 0.0233 | 0.028 | 0.0348 | 0.0426 | 0.0517
in ethanol | 0.000263 | 0.000375 | 0.000479 | 0.000665 | 0.000836 | 0.0012 | 0.0016 | 0.00207 | 0.00277 | 0.00377
in ethyl acetate | 0.00334 | 0.00412 | 0.00488 | 0.0057 | 0.00689 | 0.00825 | 0.0099 | 0.0118 | 0.0141 | 0.0168
in methanol | 0.000928 | 0.00119 | 0.00157 | 0.00197 | 0.00263 | 0.00345 | 0.00448 | 0.00597 | 0.00785 | 0.0104
in methyl acetate | 0.00557 | 0.00673 | 0.00791 | 0.0095 | 0.0114 | 0.0134 | 0.0159 | 0.0188 | 0.0223 | 0.0257
in n-butyl acetate | 0.00199 | 0.00235 | 0.0029 | 0.00358 | 0.00421 | 0.00513 | 0.00617 | 0.0074 | 0.00898 | 0.0107
in n-propyl acetate | 0.00255 | 0.00314 | 0.00377 | 0.00456 | 0.00543 | 0.00659 | 0.00783 | 0.00948 | 0.0114 | 0.0135
